Assay results taken from publication PMC12073402, “A Selective MAP3K1 Inhibitor Facilitates Discovery of NPM1 as a Member of the Network” (Molecules, 2025).

Key:
Test in all cases: KiNativ kinome profiling in PANC-1 lysate
Type in all cases: binding
IRAK4 = target: T1, IRAK4 (Homo sapiens, UniProt Q9NWZ3)
T1 construct: we opted to conduct a kinome screen (KiNativ) in PANC-1 cell lysates; endogenous in cells; host or cells: PANC-1 cell lysate
How it was run: (§1)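 PANC-1 lysates were incubated with 5 μM inhibitor or DMSO, then labeled with a desthiobiotin-ATP acyl-phosphate probe that biotinylates conserved kinase lysines. Tryptic peptides were streptavidin-enriched and quantified by LC-MS/MS, reported as % change in MS signal from duplicate treated and duplicate control samples.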

STK33 = target: T2, STK33 (Homo sapiens, UniProt Q9BYT3); details: Lys2
T2 construct: endogenous in cells; host or cells: PANC-1 cell lysate
How it was run: as §1

CRK7 = target: T3, CRK7 (Homo sapiens, UniProt Q9NYV4); details: Lys2
T3 construct: endogenous in cells; host or cells: PANC-1 cell lysate
How it was run: as §1

MAP3K6 = target: T4, MAP3K6 (Homo sapiens, UniProt O95382)
T4 construct: endogenous in cells; host or cells: PANC-1 cell lysate
T4 sequence (O95382 whole entry): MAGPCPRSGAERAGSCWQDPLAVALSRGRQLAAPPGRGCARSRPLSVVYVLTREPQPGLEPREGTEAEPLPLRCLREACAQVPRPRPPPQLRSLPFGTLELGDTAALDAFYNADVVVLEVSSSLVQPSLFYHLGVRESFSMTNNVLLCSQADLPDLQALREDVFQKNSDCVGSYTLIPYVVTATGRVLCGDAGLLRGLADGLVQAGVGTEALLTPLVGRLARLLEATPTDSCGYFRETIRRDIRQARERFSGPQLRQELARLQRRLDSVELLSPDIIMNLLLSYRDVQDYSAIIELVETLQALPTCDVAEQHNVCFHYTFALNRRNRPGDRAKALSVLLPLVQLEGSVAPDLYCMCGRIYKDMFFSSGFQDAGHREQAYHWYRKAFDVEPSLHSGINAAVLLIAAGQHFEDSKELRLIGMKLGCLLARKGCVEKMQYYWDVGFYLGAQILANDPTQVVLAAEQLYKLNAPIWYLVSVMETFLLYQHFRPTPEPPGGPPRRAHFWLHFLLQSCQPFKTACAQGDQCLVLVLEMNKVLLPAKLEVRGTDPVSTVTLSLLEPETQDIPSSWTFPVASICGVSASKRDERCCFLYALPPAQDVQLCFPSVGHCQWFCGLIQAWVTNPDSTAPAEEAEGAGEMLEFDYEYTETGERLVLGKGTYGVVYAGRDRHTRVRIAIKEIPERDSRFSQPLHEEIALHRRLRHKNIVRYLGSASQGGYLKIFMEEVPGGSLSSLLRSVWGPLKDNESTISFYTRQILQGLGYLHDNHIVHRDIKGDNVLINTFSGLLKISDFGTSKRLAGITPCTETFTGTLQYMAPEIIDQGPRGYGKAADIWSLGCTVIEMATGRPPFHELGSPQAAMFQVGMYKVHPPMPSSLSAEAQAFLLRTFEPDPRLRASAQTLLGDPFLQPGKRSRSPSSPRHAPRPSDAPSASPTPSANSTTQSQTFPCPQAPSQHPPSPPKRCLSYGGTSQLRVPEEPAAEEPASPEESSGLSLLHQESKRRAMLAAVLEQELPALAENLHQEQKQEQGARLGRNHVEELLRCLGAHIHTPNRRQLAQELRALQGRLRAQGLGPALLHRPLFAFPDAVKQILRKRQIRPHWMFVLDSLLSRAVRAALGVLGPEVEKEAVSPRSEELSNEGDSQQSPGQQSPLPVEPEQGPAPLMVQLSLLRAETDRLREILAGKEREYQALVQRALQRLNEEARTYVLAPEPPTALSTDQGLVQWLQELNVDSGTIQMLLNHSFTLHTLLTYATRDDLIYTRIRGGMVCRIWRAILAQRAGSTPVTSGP
How it was run: as §1

MLK1 = target: T5, MLK1 (Homo sapiens, UniProt P80192); details: Lys2
T5 construct: endogenous in cells; host or cells: PANC-1
How it was run: as §1

FRAP = target: T6, FRAP (Homo sapiens, UniProt P42345); details: ATP
T6 construct: endogenous in cells; host or cells: PANC-1 lysate
How it was run: as §1

TEC = target: T7, TEC (Homo sapiens, UniProt P42680); details: ATP Loop
T7 construct: endogenous in cells; host or cells: PANC-1 cell lysate
How it was run: as §1

CLK1 = target: T8, CLK1 (Homo sapiens, UniProt P49759); details: Lys2
T8 construct: endogenous in cells; host or cells: PANC-1 cell lysate
How it was run: as §1

PKD2 = target: T9, PKD2 (Homo sapiens, UniProt Q9BZL6); details: Lys1
T9 construct: endogenous in cells; host or cells: PANC-1 cell lysate
How it was run: as §1

MAP2K6 = target: T10, MAP2K6 (Homo sapiens, UniProt P52564); details: for % Inhibition: 5 µM
T10 construct: endogenous in cells; host or cells: PANC-1 cell lysate
T10 sequence (P52564 1-334): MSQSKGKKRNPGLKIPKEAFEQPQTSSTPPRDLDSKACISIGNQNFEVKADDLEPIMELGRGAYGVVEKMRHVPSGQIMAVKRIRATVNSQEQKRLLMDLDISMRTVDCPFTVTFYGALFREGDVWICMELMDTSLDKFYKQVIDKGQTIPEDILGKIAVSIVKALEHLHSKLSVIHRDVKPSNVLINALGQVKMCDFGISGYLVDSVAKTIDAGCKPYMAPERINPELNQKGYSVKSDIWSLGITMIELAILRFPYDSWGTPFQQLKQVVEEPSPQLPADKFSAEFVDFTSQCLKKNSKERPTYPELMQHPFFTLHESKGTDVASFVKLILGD
How it was run: as §1

CK1g1, CK1g2, CK1g3 = details: 5 µM; ATP Loop; KIGCGNFGELR
How it was run: as §1

PIP4K2A = target: T11, PIP4K2A (Homo sapiens, UniProt P48426); details: ATP
T11 construct: endogenous in cells; host or cells: PANC-1 cell lysate
T11 sequence (P48426 whole entry): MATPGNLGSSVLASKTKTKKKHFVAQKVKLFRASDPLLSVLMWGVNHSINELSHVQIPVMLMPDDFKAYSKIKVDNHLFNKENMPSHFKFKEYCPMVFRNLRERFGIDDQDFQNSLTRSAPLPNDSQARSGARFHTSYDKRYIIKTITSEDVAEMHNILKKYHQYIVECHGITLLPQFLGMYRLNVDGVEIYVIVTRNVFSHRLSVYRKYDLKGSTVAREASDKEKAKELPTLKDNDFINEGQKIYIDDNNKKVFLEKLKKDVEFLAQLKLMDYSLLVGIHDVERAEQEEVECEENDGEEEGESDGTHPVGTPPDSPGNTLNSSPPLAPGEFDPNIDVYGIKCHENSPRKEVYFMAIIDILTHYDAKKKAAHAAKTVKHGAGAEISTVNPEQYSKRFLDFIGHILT
How it was run: as §1

MSK2 domain1 = target: T12, MSK2 domain1 (Homo sapiens, UniProt O75676)
T12 construct: endogenous in cells; host or cells: PANC-1
T12 sequence (O75676 whole entry, the tested form may be a part): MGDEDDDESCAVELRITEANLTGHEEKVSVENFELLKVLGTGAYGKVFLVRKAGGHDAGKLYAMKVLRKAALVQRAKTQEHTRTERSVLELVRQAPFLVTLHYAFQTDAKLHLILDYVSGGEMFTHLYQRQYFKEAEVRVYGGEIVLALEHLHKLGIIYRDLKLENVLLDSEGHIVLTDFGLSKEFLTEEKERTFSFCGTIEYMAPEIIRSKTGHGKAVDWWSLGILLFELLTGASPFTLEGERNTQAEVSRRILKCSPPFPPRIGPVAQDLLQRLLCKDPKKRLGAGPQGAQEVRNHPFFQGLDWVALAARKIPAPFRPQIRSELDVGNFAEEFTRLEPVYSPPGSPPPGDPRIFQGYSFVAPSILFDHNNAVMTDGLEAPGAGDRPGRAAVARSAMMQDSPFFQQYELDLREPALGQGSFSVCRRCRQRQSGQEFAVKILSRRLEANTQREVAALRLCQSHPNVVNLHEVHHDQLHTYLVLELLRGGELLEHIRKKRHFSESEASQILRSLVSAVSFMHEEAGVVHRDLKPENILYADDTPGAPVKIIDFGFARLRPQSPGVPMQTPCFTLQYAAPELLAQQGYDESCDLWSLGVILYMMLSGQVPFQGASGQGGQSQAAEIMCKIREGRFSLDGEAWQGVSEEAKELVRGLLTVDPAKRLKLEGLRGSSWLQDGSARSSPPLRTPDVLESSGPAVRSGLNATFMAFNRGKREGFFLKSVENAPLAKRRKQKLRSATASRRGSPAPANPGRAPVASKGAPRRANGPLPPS
How it was run: as §1

[1] = test system: RSK1 domain1, RSK2 domain1, RSK3 domain1; details: 5 µM; Lys2; DLKPENILLDEEGHIK
How it was run: as §1

CDK6 = target: T13, CDK6 (Homo sapiens, UniProt Q00534); details: Lys2
T13 construct: endogenous in cells; host or cells: PANC-1 cell lysate
T13 sequence (Q00534 whole entry): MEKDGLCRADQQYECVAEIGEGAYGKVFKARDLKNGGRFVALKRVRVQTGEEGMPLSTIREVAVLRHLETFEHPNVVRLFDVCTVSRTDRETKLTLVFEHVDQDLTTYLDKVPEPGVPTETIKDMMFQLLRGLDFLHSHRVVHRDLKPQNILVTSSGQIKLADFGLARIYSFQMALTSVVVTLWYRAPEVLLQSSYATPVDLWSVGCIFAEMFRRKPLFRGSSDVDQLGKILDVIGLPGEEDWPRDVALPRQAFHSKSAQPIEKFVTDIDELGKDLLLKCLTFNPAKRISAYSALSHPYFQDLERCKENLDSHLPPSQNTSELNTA
How it was run: as §1

GAK = target: T14, GAK (Homo sapiens, UniProt O14976); details: Lys2
T14 construct: endogenous in cells; host or cells: PANC-1 lysate
How it was run: as §1

TAO2 = target: T15, TAO2 (Homo sapiens, UniProt Q9UL54); details: Lys2
T15 construct: endogenous in cells; host or cells: PANC-1 cell lysate
T15 sequence (Q9UL54 whole entry): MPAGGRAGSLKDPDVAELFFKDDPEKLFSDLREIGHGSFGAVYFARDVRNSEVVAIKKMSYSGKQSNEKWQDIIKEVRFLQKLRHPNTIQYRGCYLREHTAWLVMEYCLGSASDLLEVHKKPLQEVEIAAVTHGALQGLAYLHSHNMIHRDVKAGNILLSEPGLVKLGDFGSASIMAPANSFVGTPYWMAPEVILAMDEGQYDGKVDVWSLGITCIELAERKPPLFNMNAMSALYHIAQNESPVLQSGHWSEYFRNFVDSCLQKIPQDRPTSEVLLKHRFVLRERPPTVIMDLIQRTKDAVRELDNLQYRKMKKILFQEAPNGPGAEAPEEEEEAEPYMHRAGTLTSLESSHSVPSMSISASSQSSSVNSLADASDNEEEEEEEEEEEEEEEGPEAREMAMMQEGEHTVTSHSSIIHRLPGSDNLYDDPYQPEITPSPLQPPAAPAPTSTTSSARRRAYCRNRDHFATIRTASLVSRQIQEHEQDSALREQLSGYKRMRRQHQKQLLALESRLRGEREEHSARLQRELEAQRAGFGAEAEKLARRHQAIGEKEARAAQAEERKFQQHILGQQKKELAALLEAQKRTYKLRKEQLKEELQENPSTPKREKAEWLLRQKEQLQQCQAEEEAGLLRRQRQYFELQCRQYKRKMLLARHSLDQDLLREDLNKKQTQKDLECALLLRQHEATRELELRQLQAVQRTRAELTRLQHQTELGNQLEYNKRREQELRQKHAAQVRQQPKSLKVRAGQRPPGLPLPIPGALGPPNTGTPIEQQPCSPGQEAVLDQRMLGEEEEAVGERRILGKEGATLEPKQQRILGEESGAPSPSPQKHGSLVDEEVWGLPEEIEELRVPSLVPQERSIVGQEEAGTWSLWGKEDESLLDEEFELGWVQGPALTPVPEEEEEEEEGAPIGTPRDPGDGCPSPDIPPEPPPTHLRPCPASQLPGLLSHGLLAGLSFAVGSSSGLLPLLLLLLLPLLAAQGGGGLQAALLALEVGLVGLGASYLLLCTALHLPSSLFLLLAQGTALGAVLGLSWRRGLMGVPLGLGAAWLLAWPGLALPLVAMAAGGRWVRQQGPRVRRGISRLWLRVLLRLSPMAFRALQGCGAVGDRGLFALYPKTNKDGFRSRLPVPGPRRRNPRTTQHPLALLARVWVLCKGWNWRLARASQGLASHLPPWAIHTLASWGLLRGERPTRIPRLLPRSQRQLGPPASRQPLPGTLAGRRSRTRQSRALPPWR
How it was run: as §1

RIPK2 = target: T16, RIPK2 (Homo sapiens, UniProt O43353); details: Lys2
T16 construct: endogenous in cells; host or cells: PANC-1 cell lysate
How it was run: as §1

PI4KA, PI4KAP2 = details: 5 µM; ATP; SGTPMQSAAKAPYLAK
How it was run: as §1

CaMKK2 = target: T17, CaMKK2 (Homo sapiens, UniProt Q96RR4)
T17 construct: endogenous in cells; host or cells: PANC-1 cell lysate
T17 sequence (Q96RR4 whole entry): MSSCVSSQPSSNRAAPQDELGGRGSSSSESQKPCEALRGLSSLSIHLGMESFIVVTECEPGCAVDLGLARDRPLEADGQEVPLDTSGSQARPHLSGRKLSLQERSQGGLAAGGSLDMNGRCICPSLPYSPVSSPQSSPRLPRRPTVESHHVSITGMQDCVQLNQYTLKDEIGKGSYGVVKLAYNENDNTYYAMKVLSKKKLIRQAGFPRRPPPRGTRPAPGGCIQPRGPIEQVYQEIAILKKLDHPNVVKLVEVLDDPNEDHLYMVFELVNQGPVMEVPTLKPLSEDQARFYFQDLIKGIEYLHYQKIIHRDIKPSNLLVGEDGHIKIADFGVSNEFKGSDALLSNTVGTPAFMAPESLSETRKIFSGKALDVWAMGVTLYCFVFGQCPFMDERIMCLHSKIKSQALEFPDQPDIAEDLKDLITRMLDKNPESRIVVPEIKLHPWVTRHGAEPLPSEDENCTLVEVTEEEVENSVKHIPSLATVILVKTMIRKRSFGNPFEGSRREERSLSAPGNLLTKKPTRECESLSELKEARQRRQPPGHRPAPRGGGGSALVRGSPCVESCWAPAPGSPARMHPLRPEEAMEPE
How it was run: as §1

CDK11 = target: T18, CDK11 (Homo sapiens, UniProt Q9BWU1); details: Lys1
T18 construct: endogenous in cells; host or cells: PANC-1 cell lysate
How it was run: as §1

LKB1 = target: T19, LKB1 (Homo sapiens, UniProt Q15831); details: Lys2
T19 construct: we opted to conduct a kinome screen (KiNativ) in PANC-1 cell lysates; endogenous in cells; host or cells: PANC-1 cell lysate
How it was run: as §1

T1 sequence (Q9NWZ3 whole entry): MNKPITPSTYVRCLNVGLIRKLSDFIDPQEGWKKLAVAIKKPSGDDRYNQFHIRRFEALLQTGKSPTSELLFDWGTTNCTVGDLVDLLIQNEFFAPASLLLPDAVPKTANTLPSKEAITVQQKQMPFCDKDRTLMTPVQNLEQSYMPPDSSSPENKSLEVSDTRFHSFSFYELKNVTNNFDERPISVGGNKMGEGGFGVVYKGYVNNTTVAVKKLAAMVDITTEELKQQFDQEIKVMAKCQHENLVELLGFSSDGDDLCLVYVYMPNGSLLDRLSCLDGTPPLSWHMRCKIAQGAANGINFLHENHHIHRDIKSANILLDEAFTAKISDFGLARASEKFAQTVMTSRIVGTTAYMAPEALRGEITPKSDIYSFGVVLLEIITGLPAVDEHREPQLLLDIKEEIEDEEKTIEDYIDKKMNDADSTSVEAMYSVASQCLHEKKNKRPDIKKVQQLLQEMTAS

Cn1cc(-c2cnc3ccc(NC(=O)Nc4ccc(F)c(C(F)(F)F)c4)cc3n2)cn1 [51-106, 1-(4-Fluoro-3-(trifluoromethyl)phenyl)-3-(3-(1-methyl-1H-pyrazol-4-yl)quinoxalin-6-yl)urea]
inhibition at 5 µM (IRAK4; Lys1, GYVNNTTVAVKK): ≤ 0% | inhibition at 5 µM (IRAK4; Lys2, DIKSANILLDEAFTAK): 1.2% | inhibition at 5 µM (STK33): 26.6% | inhibition at 5 µM (CRK7): 14.3% | inhibition at 5 µM (MAP3K6; 5 µM, Lys2, […]): ≤ 0% | inhibition of MAP3K6 (in words) (MAP3K6; 5 μM, PANC-1 lysate): did not inhibit | inhibition at 5 µM (MLK1): 1.5% | inhibition at 5 µM (FRAP): ≤ 0% | inhibition at 5 µM (TEC): 20.1% | inhibition at 5 µM (CLK1): 0.5% | inhibition at 5 µM (PKD2): 10.6% | % Inhibition (MAP2K6; Lys1, HVPSGQIMAVKR): NB (NB = No Binding (≤ 0)) | % Inhibition (MAP2K6; Lys2, DVKPSNVLINALGQVK): NB (NB = No Binding (≤ 0)) | inhibition at 5 µM (MAP2K6; ATP Loop, […]): ≤ 0% | % Inhibition (CK1g1, CK1g2, CK1g3): 11.7% | inhibition at 5 µM (PIP4K2A; AKELPTLKDNDFINEGQK): ≤ 0% | inhibition at 5 µM (PIP4K2A; YIIKTITSEDVAEMHNILK): 4.5% | inhibition at 5 µM (MSK2 domain1; Lys1, LYAMKVLR): 5.5% | inhibition at 5 µM (MSK2 domain1; Lys2, DLKLENVLLDSEGHIVLTDFGLSK): ≤ 0% | % Inhibition [1]: NB (NB = No Binding (≤ 0)) | inhibition at 5 µM (CDK6): ≤ 0% | inhibition at 5 µM (GAK): 1% | inhibition at 5 µM (TAO2): 5.5% | inhibition at 5 µM (RIPK2): ≤ 0% | % Inhibition (PI4KA, PI4KAP2): 3.0% | inhibition at 5 µM (CaMKK2; Lys1, LAYNENDNTYYAMKVLSK): 2.6% | inhibition at 5 µM (CaMKK2; Lys2, DIKPSNLLVGEDGHIK): ≤ 0% | inhibition at 5 µM (CDK11): 4% | inhibition at 5 µM (LKB1): ≤ 0%
